Results as given in patent publication US20170095565A1, “CHEMICALLY MODIFIED SMALL MOLECULES” (Nektar Therapeutics, priority 2003, published 2017).
Counter-ions that a name gives are not always drawn. Like-named read-outs stand apart in the source and are kept apart here.

Assays:
[1] = PEG-CIPRO absorption from lung after IT administration; settings: Cipro and PEG-Cipro
Text: In vivo absorption data was collected through rat studies, in which, following IT administration to rats, whole lungs were excised and analyzed for test article concentration.

[2] = Lung residence after intratracheal administration (BAL, BAL cells, residual lung, serum); type: in vivo, rats; settings: for half-life: rat, other: intratracheal (IT), 30 μg
Protocol: To determine the effect of PEG length on residence time in the lung, a series of in vivo experiments was performed in which each PEG-FITC species was administered intratracheally (IT) to rats, and the amount remaining in the lung was determined at progressive time points. For each species, 30 μg PEG-FITC, prepared in PBS/0.5% BSA, was administered IT to rats (300 μL of a 100 μg/mL solution). […] Following the lavage, lungs were excised, and samples of serum were extracted. The resulting lavage solution was then centrifuged to pellet the cellular fraction (BAL cells) and separate it from the BAL supernatant.
Samples from BAL, BAL cells and serum were read directly in microtiter plates with no prior treatment. To quantitate PEG-FITC remaining in the residual lung material, however, the excised lungs were homogenized and PEG-FITC was extracted in ethanol.
For all samples, quantitation was performed by interpolation from a standard curve generated from known concentrations of the relevant molecule prepared in the correlating matrix. Thus for samples of BAL and BAL cells, the standard samples were prepared in 0.9% NaCl, for serum samples, the standards were prepared in commercially obtained rat serum, and for lung extracts, the standard samples were prepared in PBS: Ethanol (1:3).
For BAL studies, the total amount remaining was calculated for each animal from the product of the concentration and the BAL volume recorded. For BAL cells, the pellet was resuspended in 1 mL; the amount present was calculated accordingly. For residual lung tissue, the amount present in both lungs (μg/lung) was calculated from the product of the concentration and the homogenate volume. Note that although the nominal dose delivered in each experiment was 30 μg, the dosing solution was analyzed from the same standard curve for each experiment and the actual delivered dose was calculated. The data shown throughout this specification are thus corrected for each PEG-FITC species respectively and are represented as percentage dose administered. The doses delivered in each experiment are represented in Table VIII below.

[3] = Cell-based permeability in Calu-3 cells; type: in vitro ADME; settings: human
Protocol: In vitro cell-based experiments (in a Calu-3 assay) were performed for PEG-FITC conjugates. The Calu-3 cells were cultured with an apical air-interface to mimic the in vivo epithelium.

In the case of `O=C(O)c1cn(C2CC2)c2cc(N3CCNCC3)c(F)cc2c1=O` [Cipro HCl, ciprofloxacin], the “Elimination from lung (rat IT)” value [1] is reported as 10.24 h⁻¹.
For `O=C1OC2(c3ccc(O)cc3Oc3cc(O)ccc32)c2ccccc21` [Sodium fluorescein, sodium fluorescein], the “Portion of dose associated with BAL cells” value ([2]; 10 min) was “approximately 13%”, the “Dose recovered in BAL” value ([2]; 10 min following IT administration) was “less than 50%” and the “Serum peak as proportion of administered dose” value ([2]; 10 min post dose) was “less than 10%”. The “Peak amount in serum” value ([2]; 10 min post dose, based on rat serum volume of approximately 8 mL) was “approximately 2 μg”, the “Dose recovered in combined lung-derived fractions” value ([2]; 10 min post-dose) was “less than 50%” and the “Elimination from lung (rat IT)” value ([2]; fluorescein, PEG and PEG-FITC) was 1.38 h⁻¹. For the same compound, the BAL k-el ([2]; rat IT, BAL supernatant) was 1.3253, the “BAL t1/2-el” value ([2]; rat IT, elimination half-life from BAL) was 31.4 min and the half-life ([2]; bronchoalveolar lavage (BAL) supernatant, rat IT, elimination half-life from BAL, read-out: BAL t1/2-el) was < 31.2 min. The half-life ([2]; combined lung compartments, rat IT, combined lung compartments, read-out: Lung t1/2-el (converted)) was 30.1 min, the “BAL t90” value ([2]; time at which 90% of the dose would be eliminated) was 1.74 h and the “BAL t99” value ([2]; time at which 99% of the dose would be eliminated) was 3.5 h. It also gave a Papp [3] of 0.34 ×10⁻⁶ cm/s.
